Earlier results in patent publication US6803057B2, “Hydrogen peroxide disinfectant with increased activity” (Virox Technologies Inc., priority 1998, dated 2004).
Where two headings read alike, the source gives them in different places.

Columns and labels:
[1] = test system: Salmonella typhimurium and Listeria monocytogenes

## CCCCCCCCCCCCc1ccc(S(=O)(=O)O)cc1 [DDBSA, dodecyl benzene sulfonic acid]
[1]
  concentration effective in sanitizing: ≥ 200 ppm

## OO [hydrogen peroxide]
Staphylococcus aureus; 0.1 wt./wt. % aqueous solution
  time required to disinfect surfaces contaminated with staphylococcus aureus: 60 min
Staphylococcus aureus; 25.8 wt./wt. % aqueous solution
  time required to disinfect surfaces contaminated with staphylococcus aureus: 0.333 min
1-3 wt./wt. % aqueous solution
  corrosivity / irritancy: non-corrosive and non-irritating
3-7 wt./wt. % aqueous solution
  corrosivity / irritancy: non-corrosive but an eye irritant
Above about 8 wt./wt. % aqueous solution
  corrosivity / irritancy: corrosive
